In patent publication US12157730B2, “Heteroaryl derivative, method for producing same, and pharmaceutical composition comprising same as effective component” (VORONOI INC., priority 2019, dated 2024):

Experiments:
[1] = target: T1, Ba/F3 cell EGFR L858R/T790M (Homo sapiens, UniProt P00533, L858R/T790M); assay: Ba/F3 cell proliferation suppression, EGFR L858R/T790M; type: cell-based; details: 72 hours after treatment, CellTiter-Glo
T1 construct: expressed in transfected cells; host or cells: Ba/F3
Protocol: (§1) The following experiment was carried out to evaluate the suppression activity of the compounds according to the present invention against proliferation of Ba/F3 and lung cancer cells which express EGFR mutations.
(§2) Of the cancer cell lines expressing the EGFR gene, A549 was cultured after adding 10% FBS (HyClone) to DMEM (Invitrogen), and RPMI-1640 (Invitrogen) with 10% FBS was used for the other cancer cells. For the Ba/F3 cells, RPMI-1640 with 10% FBS and 5 ng/ml IL-3 (R&D Systems) was used. The transduced Ba/F3 cells were cultured by adding 1 ug/ml puromycin (Invitrogen) to the same medium.
(§3) 24 hours before treatment with the compounds, 3000 to 5000 cells were distributed into each well of a white clear bottom 96 well plate (Corning). The compounds were diluted in dimethylsulfoxide (dilution ratio 3:1; 12 concentrations total) and injected 0.5 ul each for a final concentration of 0.3 nM to 50 um. As for measurement of live cells, 72 hours after treatment with the compounds, a CellTiter-Glo luminescent cell-viability reagent (Promega) was used to store the cells at room temperature for 10 minutes, followed by measurement of luminescence using a reader (SynergyNeo, Biotek). Each test was repeated three times.
(§4) The result was calculated as a cell growth ratio (%) compared to a control. The program GraphPad Prism version 5.0 was used to draw the graphs and calculate the GI50 values.

H1975 = assay: Lung cancer cell proliferation suppression, H1975; type: cell-based; details: Homo sapiens, NCI-H1975; 72 hours after treatment, CellTiter-Glo
Protocol: as §1, §2, §3, §4

[2] = target: T2, Ba/F3 cell EGFR Exon20 ins ASV (Homo sapiens, UniProt P00533, INS769ASV); assay: Ba/F3 cell proliferation suppression, EGFR Exon20 ins ASV; type: cell-based; details: 72 hours after treatment, CellTiter-Glo
T2 construct: expressed in transfected cells; host or cells: Ba/F3
Protocol: as §1, §2, §3, §4

[3] = system: Ba/F3 cell EGFR Del19/T790M; assay: Ba/F3 cell proliferation suppression, EGFR Del19/T790M; type: cell-based; details: 72 hours after treatment, CellTiter-Glo
Protocol: as §1, §2, §3, §4

Ba/F3 cell naive = assay: Ba/F3 cell proliferation suppression, naive; type: cell-based; details: Mus musculus, BaF3; 72 hours after treatment, CellTiter-Glo
Protocol: as §1, §2, §3, §4

PC9 = assay: Lung cancer cell proliferation suppression, PC9; type: cell-based; details: Homo sapiens, PC-9; 72 hours after treatment, CellTiter-Glo
Protocol: as §1, §2, §3, §4

[4] = system: scanMAX kinase panel (EGFR mutant, ERBB2, ERBB4); assay: DiscoverX (eurofin) KINOMEscan (scanMAX platform) kinase profiling; type: binding; details: for suppression activity against the EGFR mutant and ERBB2 and ERBB4: KINOMEscan scanMAX kinase profiling
From the text: It was confirmed that the above example compounds had high selectivity against EGFR series genes. Accordingly, these can be useful in the treating of cancers wherein this kinase is expressed. In particular, as they have substantially outstanding lung cancer cell line proliferation suppression, they can be useful in the treatment of lung cancer, breast cancer, and brain cancer.

PC9GR = assay: Lung cancer cell proliferation suppression, PC9GR; type: cell-based; details: 72 hours after treatment, CellTiter-Glo
Protocol: as §1, §2, §3, §4

[5] = target: T3, Ba/F3 cell EGFR Exon20 ins FQEA (Homo sapiens, UniProt P00533, INS763FQEA); assay: Ba/F3 cell proliferation suppression, EGFR Exon20 ins FQEA; type: cell-based; details: 72 hours after treatment, CellTiter-Glo
T3 construct: expressed in transfected cells; host or cells: Ba/F3
Protocol: as §1, §2, §3, §4

[6] = target: T4, Ba/F3 cell EGFR Exon20 ins SVD (Homo sapiens, UniProt P00533, INS770SVD); assay: Ba/F3 cell proliferation suppression, EGFR Exon20 ins SVD; type: cell-based; details: 72 hours after treatment, CellTiter-Glo
T4 construct: expressed in transfected cells; host or cells: Ba/F3
Protocol: as §1, §2, §3, §4

[7] = target: T5, Ba/F3 cell HER2 Exon20 ins YVMA (Homo sapiens, UniProt P04626, INS775YVMA); assay: Ba/F3 cell proliferation suppression, HER2 Exon20 ins YVMA; type: cell-based; details: 72 hours after treatment, CellTiter-Glo
T5 construct: expressed in transfected cells; host or cells: Ba/F3
Protocol: as §1, §2, §3, §4

[8] = target: T6, Ba/F3 cell EGFR Exon20 ins NPH (Homo sapiens, UniProt P00533, INS773NPH); assay: Ba/F3 cell proliferation suppression, EGFR Exon20 ins NPH; type: cell-based; details: for GI50: 72 hours after treatment, CellTiter-Glo; for Ba/F3 (NPH) Activity: GI50 class, Ba/F3 cell line with NPH inserted at Exon20 of EGFR, 72 hours
T6 construct: expressed in transfected cells; host or cells: Ba/F3
Procedure, shortened: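 Growth suppression determined as GI50 following 72 h exposure across 12 concentrations up to 50 um, with viability by luminescent ATP assay (CellTiter-Glo).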

Ba/F3 cell EGFR L858R = target: T7, Ba/F3 cell EGFR L858R (Homo sapiens, UniProt P00533, L858R); assay: Ba/F3 cell proliferation suppression, EGFR L858R; type: cell-based; details: 72 hours after treatment, CellTiter-Glo
T7 construct: expressed in transfected cells; host or cells: Ba/F3
Protocol: as §1, §2, §3, §4

T5 sequence (P04626 with tags, fused parts or gaps INS775YVMA): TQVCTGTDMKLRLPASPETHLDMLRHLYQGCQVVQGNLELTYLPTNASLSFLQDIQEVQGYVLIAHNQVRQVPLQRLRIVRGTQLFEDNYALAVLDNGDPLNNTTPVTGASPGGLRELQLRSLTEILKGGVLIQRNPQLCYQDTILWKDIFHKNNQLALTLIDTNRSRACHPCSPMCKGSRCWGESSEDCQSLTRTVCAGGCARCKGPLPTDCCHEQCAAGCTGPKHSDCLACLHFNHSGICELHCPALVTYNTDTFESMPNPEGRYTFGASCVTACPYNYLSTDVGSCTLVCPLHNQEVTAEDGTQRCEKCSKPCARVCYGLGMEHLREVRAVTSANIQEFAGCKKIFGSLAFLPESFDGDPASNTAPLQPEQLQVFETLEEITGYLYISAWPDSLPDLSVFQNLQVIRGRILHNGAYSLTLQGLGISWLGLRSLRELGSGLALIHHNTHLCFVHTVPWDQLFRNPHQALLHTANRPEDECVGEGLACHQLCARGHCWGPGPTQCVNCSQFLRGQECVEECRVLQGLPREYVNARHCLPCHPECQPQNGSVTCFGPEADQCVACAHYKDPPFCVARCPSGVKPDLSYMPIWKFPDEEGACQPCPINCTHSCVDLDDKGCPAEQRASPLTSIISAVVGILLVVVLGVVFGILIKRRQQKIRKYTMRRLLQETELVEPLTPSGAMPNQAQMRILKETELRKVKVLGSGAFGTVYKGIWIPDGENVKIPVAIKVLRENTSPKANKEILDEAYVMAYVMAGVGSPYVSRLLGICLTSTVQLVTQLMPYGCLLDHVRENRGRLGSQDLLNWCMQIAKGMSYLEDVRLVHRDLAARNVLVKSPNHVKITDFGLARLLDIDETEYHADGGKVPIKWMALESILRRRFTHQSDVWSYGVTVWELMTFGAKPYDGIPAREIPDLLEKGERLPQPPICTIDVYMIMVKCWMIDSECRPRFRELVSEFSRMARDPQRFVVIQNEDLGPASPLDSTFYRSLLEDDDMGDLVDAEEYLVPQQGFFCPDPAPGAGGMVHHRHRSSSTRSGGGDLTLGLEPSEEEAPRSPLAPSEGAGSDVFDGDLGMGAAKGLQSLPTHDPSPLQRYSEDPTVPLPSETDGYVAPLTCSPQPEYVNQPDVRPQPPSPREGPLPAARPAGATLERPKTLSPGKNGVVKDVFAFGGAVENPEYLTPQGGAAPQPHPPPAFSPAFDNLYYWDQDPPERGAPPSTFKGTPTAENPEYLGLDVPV

Row | SMILES | GI50 [1] | GI50 (H1975) | GI50 [2] | GI50 [3] | GI50 (Ba/F3 cell naive) | GI50 (PC9) | % inhibition of scanMAX Kinase profiling ([4]; EGFR(E746-A750del)) | % inhibition of scanMAX Kinase profiling ([4]; EGFR(G719C)) | % inhibition of scanMAX Kinase profiling ([4]; EGFR(G719S)) | % inhibition of scanMAX Kinase profiling ([4]; EGFR(L747-E749del, A750P)) | % inhibition of scanMAX Kinase profiling ([4]; EGFR(L747-T751del.Sins)) | % inhibition of scanMAX Kinase profiling ([4]; EGFR(L858R)) | suppression activity against the EGFR mutant and ERBB2 and ERBB4 [4] | GI50 (PC9GR) | GI50 [5] | GI50 [6] | GI50 [7] | GI50 [8] | Ba/F3 (NPH) Activity [8] | GI50 (Ba/F3 cell EGFR L858R) | further results
1 | C=CC(=O)Nc1cc(Nc2cc(N3OCC[C@@H]3c3cc(F)cc(F)c3)ncn2)c(OC)cc1N1CCC(N2CCN(C3CC3)CC2)CC1 [Example 57] | < 0.05 µM | 1 nM | < 0.05 µM | < 0.05 µM | ≥ 5 µM | 1 nM | 98% | 100% | 100% | 98% | 100% | 100% | high suppression activity | 4 nM | < 0.05 µM | < 0.05 µM | < 0.05 µM | < 0.05 µM | A (GI50 < 50 nM) | < 0.05 µM | % inhibition of scanMAX Kinase profiling ([4]; EGFR(L858R.T790M)): 96%; % inhibition of scanMAX Kinase profiling ([4]; EGFR(L861q)): 100%; % inhibition of scanMAX Kinase profiling ([4]; EGFR(S752-I759del)): 98%; % inhibition of scanMAX Kinase profiling ([4]; EGFR(T790M)): 100%; % inhibition of scanMAX Kinase profiling ([4]; ERBB2): 100%; % inhibition of scanMAX Kinase profiling ([4]; ERBB4): 100%
2 | C=CC(=O)Nc1cc(Nc2cc(N3OCC[C@@H]3c3cc(F)cc(F)c3)ncn2)c(OC)cc1N1CCC(N2C[C@@H]3C[C@H]2CO3)CC1 [Example 239, N-(2-(4-((1S,4S)-2-oxa-5-azabicyclo[2.2.1]heptane-5-yl)piperidine-1-yl)-5-((6-((R)-3-(3,5-difluorophenyl)isoxazolidine-2-yl)pyrimidine-4-yl)amino)-4-methoxyphenyl) acrylamide] | < 0.05 µM | 1 nM | < 0.05 µM | < 0.05 µM | ≥ 5 µM | 1 nM | 96% | 100% | 99% | 95% | 93% | 100% | high suppression activity | 5 nM | < 0.05 µM | < 0.05 µM | < 0.05 µM | < 0.05 µM | A (GI50 < 50 nM) | < 0.05 µM | % inhibition of scanMAX Kinase profiling ([4]; EGFR(L858R.T790M)): 98%; % inhibition of scanMAX Kinase profiling ([4]; EGFR(L861q)): 97%; % inhibition of scanMAX Kinase profiling ([4]; EGFR(S752-I759del)): 82%; % inhibition of scanMAX Kinase profiling ([4]; EGFR(T790M)): 100%; % inhibition of scanMAX Kinase profiling ([4]; ERBB2): 100%; % inhibition of scanMAX Kinase profiling ([4]; ERBB4): 100%
3 | C=CC(=O)Nc1cc(Nc2cc(N3OCC[C@@H]3c3cc(F)cc(F)c3)ncn2)c(OC)cc1N1CCC(N2CCN(CC)CC2)CC1 [Example 236, N-(5-((6-((R)-3-(3,5-difluorophenyl)isoxazolidine-2-yl)pyrimidine-4-yl)amino)-2-(4-(4-ethylpiperazine-1-yl)piperidine-1-yl)-4-methoxyphenyl) acrylamide] | < 0.05 µM | 1 nM | < 0.05 µM | < 0.05 µM | 0.5 to 5 µM | 1 nM | 89% | 100% | 100% | 98% | 100% | 100% | high suppression activity | 7 nM | < 0.05 µM | < 0.05 µM | < 0.05 µM | < 0.05 µM | A (GI50 < 50 nM) | < 0.05 µM | % inhibition of scanMAX Kinase profiling ([4]; EGFR(L858R.T790M)): 98%; % inhibition of scanMAX Kinase profiling ([4]; EGFR(L861q)): 98%; % inhibition of scanMAX Kinase profiling ([4]; EGFR(S752-I759del)): 89%; % inhibition of scanMAX Kinase profiling ([4]; EGFR(T790M)): 100%; % inhibition of scanMAX Kinase profiling ([4]; ERBB2): 100%; % inhibition of scanMAX Kinase profiling ([4]; ERBB4): 100%
4 | C=CC(=O)Nc1cc(Nc2cc(N3OCC[C@@H]3c3cc(F)cc(F)c3)ncn2)c(OC)cc1N1CC[C@@H](N(C)C)C1 [Example 242, N-(5-((6-((R)-3-(3,5-difluorophenyl)isoxazolidine-2-yl)pyrimidine-4-yl)amino)-2-((R)-3-(dimethylamino)pyrolidine-1-yl)-4-methoxyphenyl) acrylamide] | < 0.05 µM | 4 nM | < 0.05 µM | 0.05 to 0.5 µM | 0.5 to 5 µM | 1 nM |  |  |  |  |  |  | high suppression activity | 23 nM | < 0.05 µM | < 0.05 µM | < 0.05 µM | < 0.05 µM | A (GI50 < 50 nM) | < 0.05 µM | 
5 | C=CC(=O)Nc1cc(Nc2cc(N3OCC[C@@H]3c3cc(F)cc(F)c3)ncn2)c(OC)cc1N1CCC(N2CCOCC2)CC1 [Example 30, N-(5-((6-((R)-3-(3,5-difluorophenyl)isoxazolidine-2-yl)pyrimidine-4-yl)amino)-4-methoxy-2-(4-morpholinopiperidine-1-yl)phenyl) acrylamide] | < 0.05 µM | 1 nM | < 0.05 µM | < 0.05 µM | ≥ 5 µM | 1 nM | 95% | 100% | 100% | 100% | 96% | 100% | high suppression activity | 6 nM | < 0.05 µM | < 0.05 µM | < 0.05 µM | < 0.05 µM | A (GI50 < 50 nM) | < 0.05 µM | % inhibition of scanMAX Kinase profiling ([4]; EGFR(L858R.T790M)): 97%; % inhibition of scanMAX Kinase profiling ([4]; EGFR(L861q)): 100%; % inhibition of scanMAX Kinase profiling ([4]; EGFR(S752-I759del)): 99%; % inhibition of scanMAX Kinase profiling ([4]; EGFR(T790M)): 100%; % inhibition of scanMAX Kinase profiling ([4]; ERBB2): 100%; % inhibition of scanMAX Kinase profiling ([4]; ERBB4): 100%
6 | C=CC(=O)Nc1cc(Nc2cc(N3OCC[C@@H]3c3cc(F)cc(F)c3)ncn2)c(OC)cc1N1CCC(N2C[C@H]3C[C@@H]2CO3)CC1 [Example 238, N-(2-(4-((1R,4R)-2-oxa-5-azabicyclo[2.2.1]heptane-5-yl)piperidine-1-yl)-5-((6-((R)-3-(3,5-difluorophenyl)isoxazolidine-2-yl)pyrimidine-4-yl)amino)-4-methoxyphenyl) acrylamide] | < 0.05 µM | 1 nM | < 0.05 µM | < 0.05 µM | 0.5 to 5 µM | 1 nM | 100% | 100% | 100% | 91% | 92% | 99% | high suppression activity | 4 nM | < 0.05 µM | < 0.05 µM | < 0.05 µM | < 0.05 µM | A (GI50 < 50 nM) | < 0.05 µM | % inhibition of scanMAX Kinase profiling ([4]; EGFR(L858R.T790M)): 98%; % inhibition of scanMAX Kinase profiling ([4]; EGFR(L861q)): 98%; % inhibition of scanMAX Kinase profiling ([4]; EGFR(S752-I759del)): 91%; % inhibition of scanMAX Kinase profiling ([4]; EGFR(T790M)): 100%; % inhibition of scanMAX Kinase profiling ([4]; ERBB2): 100%; % inhibition of scanMAX Kinase profiling ([4]; ERBB4): 100%
